Test results: patent publication US11001570B2, “6-amino-quinolinone compounds and derivatives as BCL6 inhibitors” (Boehringer Ingelheim International GmbH, priority 2016, dated 2021)

Each molecule was assayed against T1, BCL6::BCOR (Homo sapiens, UniProt P41182, C67R/C84N/C8Q) (assay: BCL6::BCOR ULight TR-FRET assay).
T1 construct: BCL6 (amino acids 5 to 129, with the following changes to the natural protein); made in house; host or cells: E. coli
Format: binding
Excerpt: Biological Methods BCL6::BCOR ULight TR-FRET Assay:
Biotinylated BCL6 protein corresponding to BCL6 (amino acids 5 to 129, with the following changes to the natural protein: C8Q, C67R, C84N) is expressed in E. coli with a carboxy-terminal Avi tag (amino acid sequence […]). The BCOR ULight peptide uses a direct carboxy-terminal ULight tag (PerkinElmer). The sequence of the peptide is CRSEIISTAPSSWVVPGP, with the amino terminus acetylated and the ULight tag attached to the cysteine. Compounds are dispensed onto assay plates (Proxiplate 384 PLUS, white, PerkinElmer) using an Access Labcyte Workstation with the Labcyte Echo 55×from a DMSO solution. For the chosen highest assay concentration of 100 μM, 150 nl of compound solution are transferred from a 10 mM DMSO compound stock solution. A series of 11 concentrations is transferred for each compound at which each concentration is fivefold lower than the previous one. DMSO is added such that every well has a total of 150 nl compound solution. 5 μL of 1 nM BCL6 protein in assay buffer (50 mM HEPES pH 7.3; 125 mM NaCl; 1 mM GSH; 0.01% Triton-X 100; 0.03% BSA) are added to the 150 nl of compounds. After 30 minutes incubation time at room temperature, 10 μL of a mix containing BCOR ULight peptide (100 nM final assay concentration) and Streptavidin-Europium (0.75 nM final assay concentration) are added. Plates are kept at room temperature. After 240 minutes incubation time the TR-FRET signal is measured in a PerkinElmer Envision HTS Multilabel Reader using the TR-FRET LANCE Ultra specs of PerkinElmer. Each plate contains negative controls (diluted DMSO instead of test compound; BCOR peptide and Streptavidin Europium mix with BCL6 protein) and positive controls (diluted DMSO instead of test compound; BCOR peptide and Streptavidin-Europium mix without BCL6 protein). Negative and positive control values are used for normalization.
With `C[C@@H]1C[C@H](C)CN(c2ncc(Cl)c(Nc3ccc4c(c3)cc(O[C@H](C)C(=O)O)c(=O)n4C)n2)C1` (relative stereo) [Compound I-154] the IC50 was 82 nM. `CNC(=O)COc1cc2cc(Nc3nc(N4C[C@H](C)C[C@@H](C)C4)ncc3Cl)ccc2n(C)c1=O` (single isomer, unassigned) [Compound I-5] showed an IC50 of 12 nM. Work on `CNC(=O)COc1cc2cc(Nc3nc(N4C[C@@H](C)C[C@H](C)C4)ncc3Cl)ccc2n(C)c1=O` (single isomer, unassigned) [Compound I-6] yielded an IC50 of 7 nM. `CNC(=O)COc1cc2cc(Nc3nc(N4C[C@H](CO)N[C@@H](C)C4)ncc3Cl)ccc2n(C)c1=O` (single isomer, unassigned) [Compound I-10] showed an IC50 of 18 nM. `CNC(=O)COc1cc2cc(Nc3nc(N4C[C@@H](CO)N[C@@H](C)C4)ncc3Cl)ccc2n(C)c1=O` (single isomer, unassigned) [Compound I-11] was tested, and the IC50 was 13 nM. In the case of `C[C@@H]1C[C@H](C)CN(c2ncc(Cl)c(Nc3ccc4c(c3)cc(OC[S@@+](C)[O-])c(=O)n4C)n2)C1` (single isomer, unassigned) [Compound I-173], the IC50 is reported as 37 nM. `C[C@@H]1C[C@H](C)CN(c2ncc(Cl)c(Nc3ccc4c(c3)cc(OC[S+](C)[O-])c(=O)n4C)n2)C1` (single isomer, unassigned) [Compound I-174] showed an IC50 of 16 nM. Work on `COC(=O)COc1cc2cc(Nc3nc(N4C[C@H](C)C[C@H](C)C4)ncc3Cl)ccc2n(C)c1=O` [Compound I-1, methyl 2-{[6-({5-chloro-2-[cis-3,5-dimethylpiperidin-1-yl]pyrimidin-4-yl}amino)-1-methyl-2-oxo-1,2-dihydroquinolin-3-yl]oxy}acetate] yielded an IC50 of 10 nM. `COC(=O)COc1cc2cc(Nc3nc(N4CCC(F)CC4)ncc3Cl)ccc2n(C)c1=O` [Compound I-2, methyl 2-[(6-{[5-chloro-2-(4-fluoropiperidin-1-yl)pyrimidin-4-yl]amino}-1-methyl-2-oxo-1,2-dihydro-quinolin-3-yl)oxy]-acetate] showed an IC50 of 9 nM. In the case of `CNC(=O)COc1cc2cc(Nc3nc(N4CCN(CCOC)CC4)ncc3Cl)ccc2n(C)c1=O` [Compound I-3, 2-{[6-({5-chloro-2-[4-(2-methoxyethyl)piperazin-1-yl]pyrimidin-4-yl}amino)-1-methyl-2-oxo-1,2-dihydroquinolin-3-yl]oxy}-N-methylacetamide], the IC50 is reported as 7 nM. Work on `CNC(=O)COc1cc2cc(Nc3nc(N4C[C@H](C)C[C@H](C)C4)ncc3Cl)ccc2n(C)c1=O` [Compound I-4, 2-[(6-{[5-chloro-2-(cis-3,5-dimethylpiperidin-1-yl)pyrimidin-4-yl]amino}-1-methyl-2-oxo-1,2-dihydro-quinolin-3-yl)oxy]-N-methylacetamide] yielded an IC50 of 3 nM. With `CNC(=O)COc1cc2cc(Nc3nc(N4C[C@H]5CC[C@@H](C4)O5)ncc3Cl)ccc2n(C)c1=O` [Compound I-7, 2-({6-[(5-chloro-2-{8-oxa-3-azabicyclo[3.2.1]octan-3-yl}pyrimidin-4-yl)amino]-1-methyl-2-oxo-1,2-dihydroquinolin-3-yl}oxy)-N-methylacetamide] the IC50 was 5 nM. `CNC(=O)COc1cc2cc(Nc3nc(N4C[C@H](C)C[C@@H](NC)C4)ncc3Cl)ccc2n(C)c1=O` [Compound I-8, 2-{[6-({5-chloro-2-[(3R,5R)-3-methyl-5-(methylamino)piperidin-1-yl]pyrimidin-4-yl}amino)-1-methyl-2-oxo-1,2-dihydroquinolin-3-yl]oxy}-N-methylacetamide] was tested, and the IC50 was 21 nM. Molecule `CNC(=O)COc1cc2cc(Nc3nc(N4C[C@H](CO)N[C@H](C)C4)ncc3Cl)ccc2n(C)c1=O` [Compound I-9, 2-{[6-({5-chloro-2-[(3R,5R)-3-(hydroxymethyl)-5-methylpiperazin-1-yl]pyrimidin-4-yl}amino)-1-methyl-2-oxo-1,2-dihydroquinolin-3-yl]oxy}-N-methylacetamide] has an IC50 of 41 nM. In the case of `CNC(=O)COc1cc2cc(Nc3nc(N4CC(C)NC(CF)C4)ncc3Cl)ccc2n(C)c1=O` (centres unmarked) [Compound I-12, 2-{[6-({5-chloro-2-[3-(fluoromethyl)-5-methylpiperazin-1 yl]pyrimidin-4-yl}amino)-1-methyl-2-oxo-1,2-dihydroquinolin-3-yl]oxy}-N-methylacetamide], the IC50 is reported as 7 nM. Molecule `CNC(=O)COc1cc2cc(Nc3nc(N4CC(C)C(C(=O)N(C)C)C(C)C4)ncc3Cl)ccc2n(C)c1=O` (centres unmarked) [Compound I-13, 1-[5-chloro-4-({1-methyl-3-[(methylcarbamoyl)-methoxy]-2-oxo-1,2-dihydroquinolin-6-yl}amino)pyrimidin-2-yl]-N,N,3,5-tetramethylpiperidine-4-carboxamide] has an IC50 of 5 nM. Molecule `CNC(=O)COc1cc2cc(Nc3nc(N4C[C@H](C(F)(F)F)C[C@H](C(F)(F)F)C4)ncc3Cl)ccc2n(C)c1=O` [Compound I-14, 2-{[6-({2-[cis-3,5-bis(trifluoromethyl)piperidin-1-yl]-5-chloropyrimidin-4-yl}amino)-1-methyl-2-oxo-1,2-dihydroquinolin-3-yl]oxy}-N-methyl-acetamide] has an IC50 of 20 nM. Molecule `CNC(=O)COc1cc2cc(Nc3nc(N4CCN(c5ccccn5)CC4)ncc3Cl)ccc2n(C)c1=O` [Compound I-15] has an IC50 of 32 nM. `CNC(=O)COc1cc2cc(Nc3nc(N4CCN(CCN(C)C)C(=O)C4)ncc3Cl)ccc2n(C)c1=O` [Compound I-16] gave an IC50 of 10 nM. `CNC(=O)COc1cc2cc(Nc3nc(N4CCCC[C@H]4C)ncc3Cl)ccc2n(C)c1=O` [Compound I-17] showed an IC50 of 8 nM. For `CNC(=O)COc1cc2cc(Nc3nc(N4CCN(C(=O)CN(C)C)CC4)ncc3Cl)ccc2n(C)c1=O` [Compound I-18], the IC50 was 7 nM. `CNC(=O)COc1cc2cc(Nc3nc(N4CCCCC4)ncc3Cl)ccc2n(C)c1=O` [Compound I-19] gave an IC50 of 6 nM. For `CNC(=O)COc1cc2cc(Nc3nc(N4CCN(CCN(C)C)CC4)ncc3Cl)ccc2n(C)c1=O` [Compound I-20], the IC50 was 6 nM. Molecule `CNC(=O)COc1cc2cc(Nc3nc(N4CCCC(F)CC4)ncc3F)ccc2n(C)c1=O` (centres unmarked) [Compound I-21] has an IC50 of 12 nM. `CNC(=O)COc1cc2cc(Nc3nc(N4CCC(F)CC4)ncc3F)ccc2n(C)c1=O` [Compound I-22] gave an IC50 of 10 nM. Work on `CNC(=O)COc1cc2cc(Nc3nc(N4C[C@H](C)C[C@H](C)C4)ncc3F)ccc2n(C)c1=O` [Compound I-23] yielded an IC50 of 9 nM. Work on `CNC(=O)COc1cc2cc(Nc3nc(N4CC(C)(C)CC(C)(C)C4)ncc3Cl)ccc2n(C)c1=O` [Compound I-24] yielded an IC50 of 13 nM. Molecule `CNC(=O)COc1cc2cc(Nc3nc(N4CCC(F)CC4)ncc3Cl)ccc2n(C)c1=O` [Compound I-25] has an IC50 of 4 nM. In the case of `CNC(=O)COc1cc2cc(Nc3nc(N4CCC(F)(F)CC4)ncc3Cl)ccc2n(C)c1=O` [Compound I-26], the IC50 is reported as 4 nM. Work on `CNC(=O)COc1cc2cc(Nc3nc(N4CCC(F)(F)CC4)ncc3F)ccc2n(C)c1=O` [Compound I-27] yielded an IC50 of 6 nM. Molecule `CNC(=O)COc1cc2cc(Nc3nc(N4CCC(C(=O)N(C)C)CC4)ncc3F)ccc2n(C)c1=O` [Compound I-28] has an IC50 of 12 nM. `CNC(=O)COc1cc2cc(Nc3nc(N4CCCC(F)(F)C4)ncc3Cl)ccc2n(C)c1=O` [Compound I-29] was tested, and the IC50 was 10 nM. Work on `CNC(=O)COc1cc2cc(Nc3nc(N4CCC(C#N)CC4)ncc3Cl)ccc2n(C)c1=O` [Compound I-30] yielded an IC50 of 5 nM. For `CNC(=O)COc1cc2cc(Nc3nc(N4CCC5(CC4)CC5)ncc3Cl)ccc2n(C)c1=O` [Compound I-31], the IC50 was 6 nM. For `CNC(=O)COc1cc2cc(Nc3nc(N4CCC(O)(C(F)(F)F)CC4)ncc3Cl)ccc2n(C)c1=O` [Compound I-32], the IC50 was 5 nM.
